Tests used:
Type in all cases: functional, organism-based
Giardia intestinalis [1] = assay: Antiprotozoan activity against Giardia intestinalis; settings: Giardia duodenalis
Trichomonas vaginalis [2] = assay: Antiprotozoan activity against Trichomonas vaginalis
Entamoeba histolytica = assay: Antiprotozoan activity against Entamoeba histolytica HM1-IMSS trophozoites compound treated for 48 hrs measured after 48 hrs washout period
Giardia intestinalis [3] = assay: Antiprotozoan activity against Giardia intestinalis IMSS:0989:1 trophozoites compound treated for 48 hrs measured after 48 hrs washout period; settings: Giardia duodenalis, IMSS:0989:1, 48 h
Trichomonas vaginalis [4] = assay: Antiprotozoan activity against Trichomonas vaginalis GT3 trophozoites compound treated for 48 hrs measured after 48 hrs washout period; settings: GT3, 48 h

SMILES	IC50 (Giardia intestinalis [1]) [nM]	IC50 (Trichomonas vaginalis [2]) [nM]	IC50 (Entamoeba histolytica) [nM]	IC50 (Giardia intestinalis [3]) [nM]	IC50 (Trichomonas vaginalis [4]) [nM]
CN(C)CCSc1nc2c(Cl)cc(Cl)cc2[nH]1	20	72			
Cc1c(OCC(F)(F)F)ccnc1C[S+]([O-])c1nc2ccccc2[nH]1 (centres undefined) [LANSOPRAZOLE]			347	73.1	122
COc1ccc2[nH]c([S+]([O-])Cc3ncc(C)c(OC)c3C)nc2c1 (centres undefined) [OMEPRAZOLE]			492	95.5	122
COc1ccnc(C[S+]([O-])c2nc3cc(OC(F)F)ccc3[nH]2)c1OC (centres undefined) [PANTOPRAZOLE]			2.6	15.7	75.6
COCCCOc1ccnc(C[S+]([O-])c2nc3ccccc3[nH]2)c1C (centres undefined) [RABEPRAZOLE]			23.7	18.1	106

From ChEMBL document CHEMBL1921759, “Antiprotozoal activity of proton-pump inhibitors” (Bioorg Med Chem Lett, 2011)
